{
  "source": "patent US20210106708A1",
  "about": "“THERMORESPONSIVE COMPOSITIONS AND METHODS FOR PREVENTING AND DISRUPTING BIOFILMS” (CASE WESTERN RESERVE UNIVERSITY, priority 2018, published 2021)",
  "key": {"HeLa cells": {"system": "HeLa cells", "assay": "PrestoBlue cell viability assay", "assay_type": "cell-based", "conditions": "200 mM vancomycin; 2 and 24 h incubation; hydrochloride", "method": "HeLa cells were cultured in Dulbecco's Modified Eagle Medium supplemented with 10% fetal bovine serum and 1% penicillin/streptomycin at 37° C. in 5% CO2 in a humidified atmosphere. The cells were seeded to 100% confluence in clear 96-well tissue culture plates (Costar, Corning, N.Y., USA) for 24 h. The cells were then exposed to the different treatments in media and incubated for the specified time. After treatment, the cells were washed in sterile phosphate buffered saline and incubated in 100 μL/well of DMEM (10% FBS, 1% penicillin/streptomycin). Cell viability was evaluated using the PrestoBlue assay (Invitrogen, USA), following the manufacturer's instructions. Briefly, 10 μL of PrestoBlue assay reagent was directly added to each well and the plates were incubated at the cell culture incubator (37° C. and 5% CO2) for 2 h. The absorbance at 570 and 600 nm were then measured using a SpectraMax i3 microplate reader (Molecular Device Inc., Sunnyvale, Calif.). All assays were performed in triplicates."}, "S. aureus biofilms": {"system": "S. aureus biofilms", "assay": "Biofilm dispersal assay (crystal violet stain)", "assay_type": "cell-based", "method": "S. aureus were cultured overnight in agar plates or in lysogeny broth (LB) with agitation (200 rpm) at 37° C. Biofilm formation was evaluated under static conditions using 12-well plates (Falcon, USA). Bacterial cultures made overnight were diluted to an OD595 of 0.1 and further diluted 100× (˜10^5 CFU/mL) in modified tryptic soy broth (3% NaCl, 0.5% glucose) and each well was filled with 2 mL of the diluted bacterial solution and incubated at 37° C. for 24 h. Biofilm dispersal activities were evaluated by removing the culture media from the biofilms after 24 h and replacing it with saline solution (0.9% NaCl) containing either individual or a combination of amino acids at the specified concentrations (pH 7.4), or the other antimicrobial agents used in the clinic (vancomycin, bacitracin, NeutroPhase, Hibiclens). After exposure to the different treatment methods, the plates were gently washed with phosphate buffered saline (PBS, 1×) thrice and then stained with 500 μL of 0.1% (w/v) crystal violet for 30 min. The wells were then washed with PBS and the crystal violet stain was solubilized with 30% acetic acid. The solution was diluted 20 times and biofilm biomass was estimated by measuring the crystal violet stained biofilm remnants, which absorbs at 595 nm."}},
  "note": "Entries after “also recorded” stand apart in the source; their conditions may differ. Counter-ions that a name gives are not always drawn.",
  "data": [
    {"molecule": "CN[C@H](CC(C)C)C(=O)N[C@H]1C(=O)N[C@@H](CC(N)=O)C(=O)N[C@H]2C(=O)N[C@H]3C(=O)N[C@H](C(=O)N[C@H](C(=O)O)c4cc(O)cc(O)c4-c4cc3ccc4O)[C@H](O)c3ccc(c(Cl)c3)Oc3cc2cc(c3O[C@@H]2O[C@H](CO)[C@@H](O)[C@H](O)[C@H]2O[C@H]2C[C@](C)(N)[C@H](O)[C@H](C)O2)Oc2ccc(cc2Cl)[C@H]1O", "note": "[vancomycin, vancomycin hydrochloride]", "values": [
      {"measurement": "in vitro cytotoxicity", "setting": "HeLa cells", "result": "extremely toxic; also recorded: extreme cell toxicity"},
      {"measurement": "biofilm disruption", "setting": "S. aureus biofilms; 200 mM vancomycin, 24 h incubation", "result": "promising results"},
      {"measurement": "biofilm disruption", "setting": "S. aureus biofilms; 2 to 256 ppm, 24 h, preformed biofilms", "result": "do not disrupt preformed biofilms"}
    ]}
  ]
}
